This passage reports IC50 and inhibition results from ChEMBL document CHEMBL3102714 (J Med Chem, 2013).

Calls of active or inactive are those of the source. The calls are words filed in the database; no cut-off is given here. Where a SMILES comes first, the peptide text is derived from it.

In general, IC50 refers to the midpoint of a concentration-inhibition curve. The term inhibition denotes how much of the control response was suppressed.

Test [1] addresses T1, Nicotinic acetylcholine receptor alpha6/alpha3/beta2/beta3 (Rattus norvegicus, UniProt P04757+P12390+P12391+P43143). Put plainly: Inhibition of rat alpha6/alpha3beta2beta3 nAChR expressed in Xenopus oocytes assessed as inhibition of ACh-induced current by voltage clamp electrophysiology method. The class given is cell-based.
For test [2], the target named is Neuronal acetylcholine receptor; alpha3/beta2 (Rattus norvegicus, UniProt P04757+P12390). Put plainly: Inhibition of rat alpha3beta2 nAChR expressed in Xenopus oocytes assessed as inhibition of ACh-induced current by voltage clamp electrophysiology method. Format: cell-based.
The target of test [3] is T2, Neuronal acetylcholine receptor; alpha3/beta4 (Rattus norvegicus, UniProt P04757+P12392). Put plainly: Inhibition of rat alpha3beta4 nAChR expressed in Xenopus oocytes assessed as inhibition of ACh-induced current by voltage clamp electrophysiology method. Format: cell-based.
Test [4] deals with Neuronal acetylcholine receptor subunit alpha-7 (Rattus norvegicus, UniProt Q05941). Nature of the test: Inhibition of rat alpha7 nAChR expressed in Xenopus oocytes assessed as inhibition of ACh-induced current by voltage clamp electrophysiology method. The class given is cell-based.
In test [5] the target is Neuronal acetylcholine receptor; alpha2/beta4 (Rattus norvegicus, UniProt P12389+P12392). Nature of the test: Inhibition of rat alpha2beta4 nAChR expressed in Xenopus oocytes assessed as inhibition of ACh-induced current by voltage clamp electrophysiology method. Format: cell-based.
Test [6] addresses Nicotinic acetylcholine receptor alpha6/alpha3/beta4 (Rattus norvegicus, UniProt P04757+P12392+P43143). Nature of the test: Inhibition of rat alpha6/alpha3beta4 nAChR expressed in Xenopus oocytes assessed as inhibition of ACh-induced current by voltage clamp electrophysiology method. The class given is cell-based.
The target of test [7] is Neuronal acetylcholine receptor; alpha2/beta2 (Rattus norvegicus, UniProt P12389+P12390). Nature of the test: Inhibition of rat alpha2beta2 nAChR expressed in Xenopus oocytes assessed as inhibition of ACh-induced current by voltage clamp electrophysiology method. Format: cell-based.
Test [8] deals with Neuronal acetylcholine receptor; alpha4/beta4 (Rattus norvegicus, UniProt P09483+P12392). Nature of the test: Inhibition of rat alpha4beta4 nAChR expressed in Xenopus oocytes assessed as inhibition of ACh-induced current by voltage clamp electrophysiology method. Format: cell-based.
Test [9] deals with Nicotinic acetylcholine receptor alpha9/alpha10 (Rattus norvegicus) (UniProt P43144+Q9JLB5). Put plainly: Inhibition of rat alpha9alpha10 nAChR expressed in Xenopus laevis oocytes assessed as inhibition of ACh-induced current at 10 uM after 2 to 4 days by voltage clamp electrophysiology method. Format: cell-based.
Test [10] addresses Neuronal acetylcholine receptor; alpha4/beta4 (Rattus norvegicus) (UniProt P09483+P12392). Nature of the test: Inhibition of rat alpha4beta4 nAChR expressed in Xenopus laevis oocytes assessed as inhibition of ACh-induced current at 10 uM after 2 to 4 days by voltage clamp electrophysiology method. The class given is cell-based.
Test [11] deals with Neuronal acetylcholine receptor subunit alpha-7 (Rattus norvegicus) (UniProt Q05941). Put plainly: Inhibition of rat alpha7 nAChR expressed in Xenopus laevis assessed as inhibition of ACh-induced current at 10 uM after 2 to 4 days by voltage clamp electrophysiology method.
For test [12], the target named is Neuronal acetylcholine receptor; alpha3/beta2 (Rattus norvegicus) (UniProt P04757+P12390). Nature of the test: Inhibition of rat alpha3beta2 nAChR expressed in Xenopus laevis oocytes assessed as inhibition of ACh-induced current at 10 uM after 2 to 4 days by voltage clamp electrophysiology method. The class given is cell-based.
Test [13] deals with Neuronal acetylcholine receptor; alpha3/beta4 (Rattus norvegicus) (UniProt P04757+P12392). Put plainly: Inhibition of rat alpha3beta4 nAChR expressed in Xenopus laevis oocytes assessed as inhibition of ACh-induced current at 1 uM after 2 to 4 days by voltage clamp electrophysiology method. Format: cell-based.
Test [14] concerns the target Neuronal acetylcholine receptor; alpha9/alpha10 (Homo sapiens) (UniProt Q9UGM1+Q9GZZ6). Nature of the test: Inhibition of alpha9alpha10 nAChR (unknown origin) expressed in Xenopus laevis oocytes at 1 uM by voltage clamp electrophysiology method. Format: cell-based.
Test [15] addresses T3, Neuronal acetylcholine receptor subunit alpha-7 (Homo sapiens, UniProt P36544). Put plainly: Inhibition of alpha7 nAChR (unknown origin) expressed in Xenopus laevis oocytes by two-electrode voltage clamp method. The class given is cell-based. On the technique in general: Two-electrode voltage clamp holds a large cell at a set potential and records current.
Test [16] deals with T4, Neuronal acetylcholine receptor; alpha3/beta4 (Homo sapiens, UniProt P30926+P32297). Nature of the test: Inhibition of alpha3beta4 nAChR (unknown origin) expressed in Xenopus laevis oocytes by two-electrode voltage clamp method. Format: cell-based.
Test [17] concerns the target T5, Neuronal acetylcholine receptor; alpha3/beta2 (Homo sapiens, UniProt P17787+P32297). Put plainly: Inhibition of alpha3beta2 nAChR (unknown origin) expressed in Xenopus laevis oocytes by two-electrode voltage clamp method. Format: cell-based.
In test [18] the target is T5, Neuronal acetylcholine receptor; alpha3/beta2. Nature of the test: Inhibition of alpha3beta2 nAChR (unknown origin) expressed in Xenopus laevis oocytes at 1uM by two-electrode voltage clamp method. Format: cell-based.
Test [19] concerns the target T3, Neuronal acetylcholine receptor subunit alpha-7. Nature of the test: Inhibition of alpha7 nAChR (unknown origin) expressed in Xenopus laevis oocytes at 1 uM by two-electrode voltage clamp method. The class given is cell-based.
Test [20] concerns the target T4, Neuronal acetylcholine receptor; alpha3/beta4. Put plainly: Inhibition of alpha3beta4 nAChR (unknown origin) expressed in Xenopus laevis oocytes at 1uM by two-electrode voltage clamp method. The class given is cell-based.
The target of test [21] is T3, Neuronal acetylcholine receptor subunit alpha-7. Nature of the test: Inhibition of alpha7 (unknown origin) nAChR.
Test [22] concerns the target T6, Neuronal acetylcholine receptor; alpha9/alpha10 (Homo sapiens, UniProt Q9GZZ6+Q9UGM1). Put plainly: Inhibition of alpha9alpha10 (unknown origin) nAChR. Format: protein-complex assay.
Test [23] deals with T1, Nicotinic acetylcholine receptor alpha6/alpha3/beta2/beta3. Put plainly: Inhibition of rat alpha6/alpha3beta2beta3 nAChR expressed in Xenopus laevis oocytes assessed as inhibition of ACh-induced current by voltage clamp electrophysiology method. Format: cell-based.
The target in test [24] is T3, Neuronal acetylcholine receptor subunit alpha-7. Nature of the test: Inhibition of human alpha7 nAChR.
The target in test [25] is T4, Neuronal acetylcholine receptor; alpha3/beta4. Nature of the test: Inhibition of human alpha3beta4 nAChR. The class given is protein-complex assay.
Test [26] addresses T5, Neuronal acetylcholine receptor; alpha3/beta2. Put plainly: Inhibition of human alpha3beta2 nAChR. The class given is protein-complex assay.
Test [27] addresses T6, Neuronal acetylcholine receptor; alpha9/alpha10. Nature of the test: Inhibition of human alpha9alpha10 nAChR. The class given is protein-complex assay.
Test [28] addresses Nicotinic acetylcholine receptor alpha9/alpha10 (Rattus norvegicus, UniProt P43144+Q9JLB5). Nature of the test: Inhibition of recombinant rat alpha9alpha10 nAChR expressed in Xenopus laevis oocytes assessed as inhibition of ACh-induced current by voltage clamp electrophysiology method. The class given is cell-based.
Test [29] deals with T2, Neuronal acetylcholine receptor; alpha3/beta4. Put plainly: Inhibition of rat alpha3beta4 nAChR expressed in Xenopus laevis oocytes assessed as inhibition of ACh-induced current after 2 to 4 days by voltage clamp electrophysiology method. The class given is cell-based.

T3 sequence (P36544 whole entry): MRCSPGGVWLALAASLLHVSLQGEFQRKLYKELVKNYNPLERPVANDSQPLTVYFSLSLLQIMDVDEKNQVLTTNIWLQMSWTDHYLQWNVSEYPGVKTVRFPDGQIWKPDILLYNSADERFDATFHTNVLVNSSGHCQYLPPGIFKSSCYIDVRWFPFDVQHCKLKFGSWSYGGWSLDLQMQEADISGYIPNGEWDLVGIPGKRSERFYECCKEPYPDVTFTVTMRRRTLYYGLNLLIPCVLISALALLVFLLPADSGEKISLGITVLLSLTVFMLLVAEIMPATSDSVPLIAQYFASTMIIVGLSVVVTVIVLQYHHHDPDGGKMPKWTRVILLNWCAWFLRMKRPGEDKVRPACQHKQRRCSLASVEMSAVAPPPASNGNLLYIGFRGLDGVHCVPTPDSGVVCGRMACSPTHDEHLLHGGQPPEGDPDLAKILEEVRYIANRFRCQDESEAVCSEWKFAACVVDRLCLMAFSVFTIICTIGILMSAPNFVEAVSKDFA
T5 sequence (P17787 whole entry): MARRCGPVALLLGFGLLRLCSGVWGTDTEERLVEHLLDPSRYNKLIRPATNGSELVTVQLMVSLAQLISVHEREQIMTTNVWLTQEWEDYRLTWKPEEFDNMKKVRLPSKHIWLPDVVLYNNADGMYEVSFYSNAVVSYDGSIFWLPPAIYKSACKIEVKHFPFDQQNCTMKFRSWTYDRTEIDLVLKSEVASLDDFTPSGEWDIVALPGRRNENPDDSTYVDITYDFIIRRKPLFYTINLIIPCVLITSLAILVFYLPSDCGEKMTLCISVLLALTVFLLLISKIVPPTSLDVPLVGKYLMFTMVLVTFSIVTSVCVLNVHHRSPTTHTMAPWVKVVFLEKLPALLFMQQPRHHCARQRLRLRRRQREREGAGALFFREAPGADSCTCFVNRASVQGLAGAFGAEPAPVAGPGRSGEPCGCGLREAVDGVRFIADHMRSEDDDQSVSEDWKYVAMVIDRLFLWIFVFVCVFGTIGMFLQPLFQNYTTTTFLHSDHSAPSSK
T5 sequence (P32297 whole entry): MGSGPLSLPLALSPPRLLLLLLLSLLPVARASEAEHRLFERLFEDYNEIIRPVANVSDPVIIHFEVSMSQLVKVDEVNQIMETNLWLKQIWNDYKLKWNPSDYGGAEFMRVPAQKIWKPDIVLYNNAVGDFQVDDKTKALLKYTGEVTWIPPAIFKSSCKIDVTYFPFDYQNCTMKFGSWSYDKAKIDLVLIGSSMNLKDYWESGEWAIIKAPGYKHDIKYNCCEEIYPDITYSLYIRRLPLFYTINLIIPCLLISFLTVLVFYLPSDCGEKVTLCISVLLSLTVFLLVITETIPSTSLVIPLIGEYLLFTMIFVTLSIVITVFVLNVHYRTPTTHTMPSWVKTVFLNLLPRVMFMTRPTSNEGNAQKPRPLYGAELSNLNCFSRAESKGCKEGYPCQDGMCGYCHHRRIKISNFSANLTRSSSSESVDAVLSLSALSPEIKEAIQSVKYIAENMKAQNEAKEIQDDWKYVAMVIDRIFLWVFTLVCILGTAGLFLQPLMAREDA
T4 sequence (P30926 whole entry): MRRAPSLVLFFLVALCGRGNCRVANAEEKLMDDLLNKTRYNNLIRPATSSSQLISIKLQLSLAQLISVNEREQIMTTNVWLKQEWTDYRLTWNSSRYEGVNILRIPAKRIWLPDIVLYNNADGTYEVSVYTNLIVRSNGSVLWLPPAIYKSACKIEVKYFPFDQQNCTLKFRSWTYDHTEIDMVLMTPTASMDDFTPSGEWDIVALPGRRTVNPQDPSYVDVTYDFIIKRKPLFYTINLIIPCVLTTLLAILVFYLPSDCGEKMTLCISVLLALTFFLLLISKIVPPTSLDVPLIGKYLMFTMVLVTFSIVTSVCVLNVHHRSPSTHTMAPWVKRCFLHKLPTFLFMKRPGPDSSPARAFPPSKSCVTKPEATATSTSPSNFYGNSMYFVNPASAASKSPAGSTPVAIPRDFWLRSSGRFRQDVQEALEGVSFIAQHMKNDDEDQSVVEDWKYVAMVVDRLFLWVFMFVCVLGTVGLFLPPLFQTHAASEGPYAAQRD
T4 sequence (P32297 whole entry): as the sequence (P32297 whole entry) above
T6 sequence (Q9UGM1 whole entry): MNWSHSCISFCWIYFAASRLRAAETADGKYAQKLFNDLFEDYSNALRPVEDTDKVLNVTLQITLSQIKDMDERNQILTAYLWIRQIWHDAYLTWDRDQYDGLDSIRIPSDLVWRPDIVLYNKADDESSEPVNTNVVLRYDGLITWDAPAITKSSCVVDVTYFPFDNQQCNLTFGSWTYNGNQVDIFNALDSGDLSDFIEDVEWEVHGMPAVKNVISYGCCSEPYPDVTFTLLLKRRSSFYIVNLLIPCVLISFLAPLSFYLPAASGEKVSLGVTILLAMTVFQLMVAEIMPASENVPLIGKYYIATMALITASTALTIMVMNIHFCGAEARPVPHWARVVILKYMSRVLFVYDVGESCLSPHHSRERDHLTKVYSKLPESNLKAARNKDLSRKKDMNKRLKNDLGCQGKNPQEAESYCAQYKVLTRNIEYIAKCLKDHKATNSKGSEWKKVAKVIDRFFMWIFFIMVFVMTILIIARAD
T6 sequence (Q9GZZ6 whole entry): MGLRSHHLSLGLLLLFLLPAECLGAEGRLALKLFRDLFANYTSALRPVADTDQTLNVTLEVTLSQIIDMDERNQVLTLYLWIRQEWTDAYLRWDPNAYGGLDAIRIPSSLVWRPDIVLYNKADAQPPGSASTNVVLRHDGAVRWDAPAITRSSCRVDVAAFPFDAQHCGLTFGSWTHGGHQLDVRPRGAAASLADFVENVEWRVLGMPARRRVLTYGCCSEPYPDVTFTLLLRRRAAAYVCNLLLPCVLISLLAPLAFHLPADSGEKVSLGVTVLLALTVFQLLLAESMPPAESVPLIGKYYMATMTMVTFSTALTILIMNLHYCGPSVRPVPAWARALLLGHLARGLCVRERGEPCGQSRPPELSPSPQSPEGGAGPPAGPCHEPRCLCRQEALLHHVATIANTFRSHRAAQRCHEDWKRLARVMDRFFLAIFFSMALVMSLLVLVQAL
T2 sequence (P04757 whole entry): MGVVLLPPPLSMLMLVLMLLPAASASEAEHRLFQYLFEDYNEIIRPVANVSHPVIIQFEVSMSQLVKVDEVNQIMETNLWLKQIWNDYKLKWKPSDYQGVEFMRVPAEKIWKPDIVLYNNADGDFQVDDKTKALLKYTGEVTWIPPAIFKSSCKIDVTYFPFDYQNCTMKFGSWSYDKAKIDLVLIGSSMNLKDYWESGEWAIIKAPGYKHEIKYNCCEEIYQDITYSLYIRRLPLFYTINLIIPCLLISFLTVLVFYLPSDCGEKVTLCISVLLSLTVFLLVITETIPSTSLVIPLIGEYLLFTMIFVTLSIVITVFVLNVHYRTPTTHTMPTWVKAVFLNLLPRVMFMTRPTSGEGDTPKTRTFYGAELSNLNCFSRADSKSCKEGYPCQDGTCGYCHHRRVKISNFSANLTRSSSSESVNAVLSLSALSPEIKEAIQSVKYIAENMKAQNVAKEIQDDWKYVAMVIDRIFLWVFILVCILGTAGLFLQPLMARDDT
T2 sequence (P12392 whole entry): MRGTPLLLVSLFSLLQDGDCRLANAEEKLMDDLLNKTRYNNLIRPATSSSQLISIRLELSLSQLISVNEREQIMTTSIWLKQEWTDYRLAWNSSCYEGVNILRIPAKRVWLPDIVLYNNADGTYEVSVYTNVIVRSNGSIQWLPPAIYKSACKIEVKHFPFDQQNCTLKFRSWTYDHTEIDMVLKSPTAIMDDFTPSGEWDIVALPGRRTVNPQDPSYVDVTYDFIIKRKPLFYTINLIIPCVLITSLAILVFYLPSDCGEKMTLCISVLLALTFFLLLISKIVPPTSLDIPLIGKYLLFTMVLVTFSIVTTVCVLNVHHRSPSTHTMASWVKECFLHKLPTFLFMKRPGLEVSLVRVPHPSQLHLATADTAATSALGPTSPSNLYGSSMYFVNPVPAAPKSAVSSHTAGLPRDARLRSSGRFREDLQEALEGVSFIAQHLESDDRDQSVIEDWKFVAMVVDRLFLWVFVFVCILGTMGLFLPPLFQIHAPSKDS
Chain of Nicotinic acetylcholine receptor alpha9/alpha10 (P43144 whole entry): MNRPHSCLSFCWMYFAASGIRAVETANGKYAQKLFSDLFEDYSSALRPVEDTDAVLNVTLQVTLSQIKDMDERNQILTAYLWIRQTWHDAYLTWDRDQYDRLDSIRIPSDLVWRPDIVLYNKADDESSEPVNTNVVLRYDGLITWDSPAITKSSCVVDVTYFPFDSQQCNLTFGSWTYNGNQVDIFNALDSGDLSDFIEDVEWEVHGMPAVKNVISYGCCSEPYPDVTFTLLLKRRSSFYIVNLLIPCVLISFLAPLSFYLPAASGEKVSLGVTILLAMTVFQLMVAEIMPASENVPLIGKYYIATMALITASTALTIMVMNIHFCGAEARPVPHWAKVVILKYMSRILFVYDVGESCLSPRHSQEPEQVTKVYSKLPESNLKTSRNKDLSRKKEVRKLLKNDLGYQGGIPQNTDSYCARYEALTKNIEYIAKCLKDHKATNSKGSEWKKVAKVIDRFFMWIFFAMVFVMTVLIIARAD
Chain of Nicotinic acetylcholine receptor alpha9/alpha10 (Q9JLB5 whole entry): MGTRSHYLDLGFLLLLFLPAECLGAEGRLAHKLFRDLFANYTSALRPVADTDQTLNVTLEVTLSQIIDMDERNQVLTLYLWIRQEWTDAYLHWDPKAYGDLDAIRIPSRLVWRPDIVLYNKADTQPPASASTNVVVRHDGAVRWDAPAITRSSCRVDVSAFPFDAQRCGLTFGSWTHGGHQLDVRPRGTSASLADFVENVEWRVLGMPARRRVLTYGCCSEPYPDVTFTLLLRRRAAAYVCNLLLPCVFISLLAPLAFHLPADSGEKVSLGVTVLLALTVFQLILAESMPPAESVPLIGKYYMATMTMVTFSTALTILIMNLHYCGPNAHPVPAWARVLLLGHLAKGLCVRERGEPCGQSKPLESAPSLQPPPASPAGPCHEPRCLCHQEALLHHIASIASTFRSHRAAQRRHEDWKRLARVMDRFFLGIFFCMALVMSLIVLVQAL

As to `[H][C@@]12CCCN1C(=O)[C@]1([H])CCCN1C(=O)[C@]([H])([C@@H](C)O)NC(=O)[C@H](CO)NC(=O)[C@]1([H])CSSC[C@@H](C(N)=O)NC(=O)[C@H](Cc3ccc(O)cc3)NC(=O)[C@H](CC(C)C)NC(=O)[C@H](C(C)C)NC(=O)[C@H](C)NC(=O)[C@]([H])(CSSC[C@H](NC(=O)CN)C(=O)N1)NC2=O` (HELM PEPTIDE1{G.C.C.S.T.P.P.C.A.V.L.Y.C.[am]}$PEPTIDE1,PEPTIDE1,2:R3-8:R3|PEPTIDE1,PEPTIDE1,3:R3-13:R3$$$V2.0), the IC50 came to 0.26 nM in test [1]; 5.72 nM in [2]; 27.7 nM in [3]; 272 nM in [4]; 121 nM in [5]; 1.54 nM in test [6]. Further, the IC50 is 800 nM in test [7] and 69.9 nM in test [8].
As for `CC[C@H](C)[C@@H]1NC(=O)[C@@H]2CCCN2C(=O)[C@H](CO)NC(=O)[C@H](CCSC)NC(=O)[C@H](C)NC(=O)[C@H](CO)NC(=O)[C@@H]2CSSC[C@H](NC(=O)CN)C(=O)N[C@@H](CSSC[C@@H](C(N)=O)NC1=O)C(=O)N[C@@H](CO)C(=O)N[C@@H](Cc1cnc[nH]1)C(=O)N1CCC[C@H]1C(=O)N[C@@H](C(C)C)C(=O)N2`, the inhibition result in [9], in [10], in test [11] and in test [12] was “inactive” each time. The inhibition result in test [13] was “Active”.
The molecule `CC[C@H](C)[C@@H]1NC(=O)[C@H](Cc2cnc[nH]2)NC(=O)[C@@H]2CCCN2C(=O)[C@H](CC(N)=O)NC(=O)[C@H](CC(N)=O)NC(=O)[C@H](C(C)C)NC(=O)[C@H](CC(N)=O)NC(=O)[C@@H]2CSSC[C@H](NC(=O)CN)C(=O)N[C@@H](CSSC[C@@H](C(N)=O)NC1=O)C(=O)N[C@@H](CO)C(=O)N[C@@H](Cc1cnc[nH]1)C(=O)N1CCC[C@H]1C(=O)N[C@@H](C)C(=O)N2` (HELM PEPTIDE1{G.C.C.S.H.P.A.C.N.V.N.N.P.H.I.C.[am]}$PEPTIDE1,PEPTIDE1,2:R3-8:R3|PEPTIDE1,PEPTIDE1,3:R3-16:R3$$$V2.0) gave an inhibition in test [14] of 22%. Besides, the values for the IC50 in [15], in test [16] and in [17] were 103 nM, 97 nM and 33 nM, respectively. Further, the inhibition result in [18], in test [19] and in [20] was “Active” in each case.
On to `NCC(=O)N[C@H]1CSSC[C@@H]2NC(=O)[C@H](CCCN=C(N)N)NC(=O)[C@@H]3CCCN3C(=O)[C@H](CC(=O)O)NC(=O)[C@H](CO)NC(=O)[C@H](CSSC[C@@H](C(=O)N[C@@H](CCCN=C(N)N)C(N)=O)NC(=O)[C@H](CCCN=C(N)N)NC(=O)[C@H](Cc3ccc(O)cc3)NC(=O)[C@H](CCCN=C(N)N)NC2=O)NC1=O`, for which the IC50 in test [21] worked out at 4700 nM; in [22], 5.2 nM.
For the molecule `[H][C@@]12CCCN1C(=O)[C@H](Cc1cnc[nH]1)NC(=O)[C@H](CCCCN)NC(=O)[C@H](CC(N)=O)NC(=O)[C@H](CCCNC(=N)N)NC(=O)[C@]1([H])CSSC[C@H](NC(=O)CN)C(=O)N[C@@]([H])(CSSC[C@@H](C(N)=O)NC(=O)[C@H](CC(C)C)NC(=O)[C@H](CC(=O)O)NC2=O)C(=O)N[C@@H](CO)C(=O)N[C@@H](CC(=O)O)C(=O)N2CCC[C@@]2([H])C(=O)N2CCC[C@@]2([H])C(=O)N1` (HELM PEPTIDE1{G.C.C.S.D.P.P.C.R.N.K.H.P.D.L.C.[am]}$PEPTIDE1,PEPTIDE1,2:R3-8:R3|PEPTIDE1,PEPTIDE1,3:R3-16:R3$$$V2.0), in test [23], the IC50 was 28.4 nM.
As to `C[C@@H]1NC(=O)[C@@H]2CSSC[C@H](NC(=O)CN)C(=O)N[C@@H](CSSC[C@@H](C(N)=O)NC(=O)[C@H](CCCNC(=N)N)NC(=O)[C@H](Cc3c[nH]c4ccccc34)NC1=O)C(=O)N[C@@H](CO)C(=O)N[C@@H](CC(=O)O)C(=O)N1CCC[C@H]1C(=O)N[C@@H](CCCNC(=N)N)C(=O)N2`, the IC50 in test [24] was 595 nM; in test [25] it was 3390 nM; in test [26], 41 nM; in test [27], 2000 nM.
Consider `CC(C)C[C@@H]1NC(=O)[C@H](CCC(=O)O)NC(=O)[C@@H]2CCCN2C(=O)[C@H](Cc2cnc[nH]2)NC(=O)[C@H](CC(N)=O)NC(=O)[C@H](C(C)C)NC(=O)[C@H](CO)NC(=O)[C@@H]2CSSC[C@H](NC(=O)CN)C(=O)N[C@@H](CSSC[C@@H](C(N)=O)NC1=O)C(=O)N[C@@H](CO)C(=O)N[C@@H](Cc1cnc[nH]1)C(=O)N1CCC[C@H]1C(=O)N[C@@H](C)C(=O)N2` (HELM PEPTIDE1{G.C.C.S.H.P.A.C.S.V.N.H.P.E.L.C.[am]}$PEPTIDE1,PEPTIDE1,2:R3-8:R3|PEPTIDE1,PEPTIDE1,3:R3-16:R3$$$V2.0), for which the IC50 in test [28] amounted to 6.9 nM.
Take `C[C@@H]1NC(=O)[C@H](Cc2ccccc2)NC(=O)[C@@H]2CSSC[C@@H](NC(=O)CN)C(=O)N[C@@H](CSSC[C@@H](C(N)=O)NC(=O)[C@H](CC(=O)O)NC(=O)[C@@H]3CCCN3C(=O)[C@H](CC(N)=O)NC(=O)[C@H]([C@@H](C)O)NC1=O)C(=O)N[C@@H](CO)C(=O)N[C@@H](Cc1ccc(O)cc1)C(=O)N1CCC[C@H]1C(=O)N1CCC[C@H]1C(=O)N2`: in test [29], the IC50 was 750 nM.
